Measured values reported in ChEMBL document CHEMBL3112536, “Pd-N-heterocyclic carbene catalyzed synthesis of piperidine alkene-alkaloids and their anti-cancer evaluation” (Bioorg Med Chem Lett, 2014).
Converted amounts (≈) assume the structure as drawn.

What was measured:
Assay type in all cases: functional, cell-based
MCF7 = test: Cytotoxicity against human MCF7 cells assessed as growth inhibition after 24 hrs by MTT assay; conditions: MCF7, 24 h
A549 = test: Cytotoxicity against human A549 cells assessed as growth inhibition after 24 hrs by MTT assay; conditions: A549, 24 h
OVCAR-3 = test: Cytotoxicity against human OVCAR3 cells assessed as growth inhibition after 24 hrs by MTT assay; conditions: OVCAR-3, 24 h

## CN1CCCC[C@H]1/C=C/c1ccc(O)cc1
MCF7
  IC50: 1.51 µg/mL (≈ 6.95 µM)
A549
  IC50: 3.45 µg/mL (≈ 15.9 µM)
OVCAR-3
  IC50: 1.94 µg/mL (≈ 8.93 µM)

## C(=C\[C@@H]1CCCCN1)/c1ccccc1
MCF7
  IC50: 9.15 µg/mL (≈ 48.9 µM)
A549
  IC50: 9.99 µg/mL (≈ 53.3 µM)
OVCAR-3
  IC50: 10.5 µg/mL (≈ 55.9 µM)

## Cc1ccc(/C=C/[C@@H]2CCCCN2)cc1
MCF7
  IC50: 5.35 µg/mL (≈ 26.6 µM)
A549
  IC50: 8.56 µg/mL (≈ 42.5 µM)
OVCAR-3
  IC50: 8.48 µg/mL (≈ 42.1 µM)

## COc1ccc(/C=C/[C@@H]2CCCCN2)cc1
MCF7
  IC50: 3.57 µg/mL (≈ 16.4 µM)
A549
  IC50: 4.33 µg/mL (≈ 19.9 µM)
OVCAR-3
  IC50: 3.31 µg/mL (≈ 15.2 µM)

## COc1ccccc1/C=C/[C@@H]1CCCCN1
MCF7
  IC50: 3.81 µg/mL (≈ 17.5 µM)
A549
  IC50: 4.94 µg/mL (≈ 22.7 µM)
OVCAR-3
  IC50: 4.78 µg/mL (≈ 22 µM)

## Cc1cccc(C)c1/C=C/[C@@H]1CCCCN1
MCF7
  IC50: 4.29 µg/mL (≈ 19.9 µM)
A549
  IC50: 7.28 µg/mL (≈ 33.8 µM)
OVCAR-3
  IC50: 6.27 µg/mL (≈ 29.1 µM)

## CCc1ccc(/C=C/[C@@H]2CCCCN2)cc1
MCF7
  IC50: 4.13 µg/mL (≈ 19.2 µM)
A549
  IC50: 5.94 µg/mL (≈ 27.6 µM)
OVCAR-3
  IC50: 5.07 µg/mL (≈ 23.5 µM)

## O=[N+]([O-])c1ccc(/C=C/[C@@H]2CCCCN2)cc1
MCF7
  IC50: 2.15 µg/mL (≈ 9.26 µM)
A549
  IC50: 3.27 µg/mL (≈ 14.1 µM)
OVCAR-3
  IC50: 1.02 µg/mL (≈ 4.39 µM)

## CC(=O)c1ccc(/C=C/[C@@H]2CCCCN2)cc1
MCF7
  IC50: 2.7 µg/mL (≈ 11.8 µM)
A549
  IC50: 3.69 µg/mL (≈ 16.1 µM)
OVCAR-3
  IC50: 2.18 µg/mL (≈ 9.51 µM)

## FC(F)(F)c1ccc(/C=C/[C@@H]2CCCCN2)cc1
MCF7
  IC50: 1.25 µg/mL (≈ 4.9 µM)
A549
  IC50: 2.82 µg/mL (≈ 11 µM)
OVCAR-3
  IC50: 0.99 µg/mL (≈ 3.88 µM)
